# Laboratory results: PubChem BioAssay AID256 (DTP/NCI, 2004)
# Where “and” joins values, the source holds several entries; their conditions need not be identical. Identical values can stand only once. Inconclusive results and toxic doses are left out.
# System: CD2F1 mice, L1210 leukemia ip, survival T/C
# Assay: NCI In Vivo Anticancer Drug Screen. Data for tumor model L1210 Leukemia (intraperitoneal) in CD2F1 (CDF1) mice
# Conditions: higher = longer survival
# Method in brief: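 Implant tumor; dose compound or vehicle; measure endpoint in both groups; report treated divided by control.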
# [1] = endpoint: mean survival time, dose: 100.0 mg/kg/injection, schedule: Q01DX001 (ip), vehicle: saline with Tween-80
# [2] = endpoint: mean survival time, dose: 200.0 mg/kg/injection, schedule: Q01DX001 (ip), vehicle: saline with Tween-80
# [3] = endpoint: mean survival time, dose: 400.0 mg/kg/injection, schedule: Q01DX001 (ip), vehicle: saline with Tween-80
# [4] = endpoint: mean survival time, dose: 100.0 mg/kg/injection, schedule: Q04DX003 (ip), vehicle: saline with Tween-80
# [5] = endpoint: mean survival time, dose: 200.0 mg/kg/injection, schedule: Q04DX003 (ip), vehicle: saline with Tween-80
# [6] = endpoint: mean survival time, dose: 400.0 mg/kg/injection, schedule: Q04DX003 (ip), vehicle: saline with Tween-80
# [7] = endpoint: mean survival time, dose: 12.5 mg/kg/injection, schedule: Q01DX009 (ip), vehicle: saline with Tween-80
# [8] = endpoint: mean survival time, dose: 25.0 mg/kg/injection, schedule: Q01DX009 (ip), vehicle: saline with Tween-80
# [9] = endpoint: mean survival time, dose: 100.0 mg/kg/injection, schedule: Q01DX009 (ip), vehicle: saline with Tween-80
# [10] = endpoint: mean survival time, dose: 50.0 mg/kg/injection, schedule: Q01DX009 (ip), vehicle: saline with Tween-80
# [11] = endpoint: mean survival time, dose: 100.0 mg/kg/injection, schedule: Q04DX002 (ip), vehicle: saline with Tween-80
# [12] = endpoint: mean survival time, dose: 200.0 mg/kg/injection, schedule: Q04DX002 (ip), vehicle: saline with Tween-80
# [13] = endpoint: mean survival time, dose: 400.0 mg/kg/injection, schedule: Q04DX002 (ip), vehicle: saline with Tween-80
# [14] = endpoint: mean survival time, dose: 200.0 mg/kg/injection, schedule: Q01DX009 (ip), vehicle: saline with Tween-80
# [15] = endpoint: mean survival time, dose: 100.0 mg/kg/injection, schedule: Q01DX009 (ip), vehicle: saline
structure (smiles),measurement,setting,value
c1ccc([P+](c2ccccc2)(c2ccccc2)c2ccccc2)cc1,T/C,"endpoint: mean survival time, dose: 0.63 mg/kg/injection, schedule: Q01DX009 (ip), vehicle: saline",108 % of control
same,T/C,"endpoint: mean survival time, dose: 1.25 mg/kg/injection, schedule: Q01DX009 (ip), vehicle: saline",111 % of control
same,T/C,"endpoint: mean survival time, dose: 2.5 mg/kg/injection, schedule: Q01DX009 (ip), vehicle: saline",117 % of control
same,T/C,"endpoint: mean survival time, dose: 5.0 mg/kg/injection, schedule: Q01DX009 (ip), vehicle: saline",122 % of control
N=c1c2ccccc2nnn1Cc1ccccc1,T/C,[1],98 % of control
same,T/C,[2],96 % of control
same,T/C,[3],93 % of control
Cc1ccc(NC(=O)COc2cc(Cl)c(Cl)cc2Cl)cc1C,T/C,[4],102 % of control
same,T/C,[5],93 % of control
same,T/C,[6],96 % of control
O=S1(=O)CC(O)C(Br)C1 (stereo not given),T/C,[4],103 % of control
same,T/C,[5],101 % of control
same,T/C,[6],92 % of control
OC1CCC2CCC1C2 (stereo not given),T/C,[1],102 % of control
same,T/C,[2],104 % of control
same,T/C,[3],101 % of control
O=C(O)C1(C(=O)O)CCC1.[NH2-].[NH2-].[Pt+2],T/C,"endpoint: mean survival time, dose: 3.12 mg/kg/injection, schedule: Q01DX009 (ip), vehicle: dextrose",110 % of control
same,T/C,"endpoint: mean survival time, dose: 6.25 mg/kg/injection, schedule: Q01DX009 (ip), vehicle: dextrose",118 % of control
same,T/C,"endpoint: mean survival time, dose: 6.25 mg/kg/injection, schedule: Q01DX009 (ip), vehicle: other",107 % of control
same,T/C,"endpoint: mean survival time, dose: 12.5 mg/kg/injection, schedule: Q01DX009 (ip), vehicle: dextrose",110 % of control
same,T/C,[7],108 % of control
same,T/C,"endpoint: mean survival time, dose: 12.5 mg/kg/injection, schedule: Q04DX003 (ip), vehicle: water",109 % of control
same,T/C,[8],117 % of control
same,T/C,"endpoint: mean survival time, dose: 25.0 mg/kg/injection, schedule: Q01DX009 (ip), vehicle: water",152 % of control
same,T/C,"endpoint: mean survival time, dose: 25.0 mg/kg/injection, schedule: Q04DX003 (ip), vehicle: water",112 % of control
same,T/C,"endpoint: mean survival time, dose: 50.0 mg/kg/injection, schedule: Q01DX009 (ip), vehicle: dextrose",113 % of control
same,T/C,"endpoint: mean survival time, dose: 100.0 mg/kg/injection, schedule: Q01DX009 (ip), vehicle: other",90 % of control
same,T/C,[9],96 % of control
same,T/C,"endpoint: mean survival time, dose: 100.0 mg/kg/injection, schedule: Q04DX003 (ip), vehicle: water",105 % of control
same,T/C,"endpoint: median survival time, dose: 60.0 mg/kg/injection, schedule: Q01DX009 (ip), vehicle: clinical formulation",109 % of control
same,T/C,"endpoint: median survival time, dose: 90.0 mg/kg/injection, schedule: Q01DX009 (ip), vehicle: dextrose",124 % of control
Cc1[nH]c(=O)c(C(=O)O)c(C)c1[N+](=O)[O-],T/C,[4],96 % of control
same,T/C,[5],94 % of control
same,T/C,[6],96 % of control
O=C1CCCC/C1=N\Nc1ccccc1,T/C,"endpoint: mean survival time, dose: 100.0 mg/kg/injection, schedule: Q01DX001 (ip), vehicle: saline",91 % of control
same,T/C,"endpoint: mean survival time, dose: 200.0 mg/kg/injection, schedule: Q01DX001 (ip), vehicle: saline",89 % of control
same,T/C,"endpoint: mean survival time, dose: 400.0 mg/kg/injection, schedule: Q01DX001 (ip), vehicle: saline",97 % of control
CC(C)c1ccc(NC(=O)Nc2cccc3ccccc23)cc1,T/C,[4],102 % of control
same,T/C,[5],91 % of control
same,T/C,[6],91 % of control
C[n+]1c(/C=C/c2ccccc2Cl)ccc2ccccc21,T/C,[7],94 % of control
same,T/C,[8],100 % of control
same,T/C,[10],96 % of control
same,T/C,"endpoint: mean survival time, dose: 50.0 mg/kg/injection, schedule: Q04DX003 (ip), vehicle: saline with Tween-80",95 % of control
O=C([O-])C1OC([n+]2ccccc2)C(O)C(O)C1O (stereo not given),T/C,"endpoint: median survival time, dose: 12.5 mg/kg/injection, schedule: Q01DX005 (ip), vehicle: saline",101 % of control
same,T/C,"endpoint: median survival time, dose: 25.0 mg/kg/injection, schedule: Q01DX005 (ip), vehicle: saline",100 % of control
same,T/C,"endpoint: median survival time, dose: 50.0 mg/kg/injection, schedule: Q01DX005 (ip), vehicle: saline",107 % of control
same,T/C,"endpoint: median survival time, dose: 100.0 mg/kg/injection, schedule: Q01DX005 (ip), vehicle: saline",112 % of control
same,T/C,"endpoint: median survival time, dose: 200.0 mg/kg/injection, schedule: Q01DX005 (ip), vehicle: saline",102 % of control
Cc1cn(C2CCC(CO)C2)c(=O)[nH]c1=O (stereo not given),T/C,"endpoint: mean survival time, dose: 100.0 mg/kg/injection, schedule: Q01DX001 (ip), vehicle: carboxymethylcellulose (CMC)",95 % of control
same,T/C,"endpoint: mean survival time, dose: 200.0 mg/kg/injection, schedule: Q01DX001 (ip), vehicle: carboxymethylcellulose (CMC)",95 % of control
same,T/C,"endpoint: mean survival time, dose: 400.0 mg/kg/injection, schedule: Q01DX001 (ip), vehicle: carboxymethylcellulose (CMC)",103 % of control
CN(C)N=Nc1ccc(C(N)=O)cc1C(N)=O,T/C,"endpoint: mean survival time, dose: 18.75 mg/kg/injection, schedule: Q01DX009 (ip), vehicle: Klucel (hydroxypropylcellulose) (HPC)",115 % of control and 104 % of control
same,T/C,"endpoint: mean survival time, dose: 37.5 mg/kg/injection, schedule: Q01DX009 (ip), vehicle: Klucel (hydroxypropylcellulose) (HPC)",122 % of control and 112 % of control
same,T/C,"endpoint: mean survival time, dose: 75.0 mg/kg/injection, schedule: Q01DX009 (ip), vehicle: Klucel (hydroxypropylcellulose) (HPC)",123 % of control and 124 % of control
Cc1[nH]c2ccc(-c3ccccc3)cc2c1CC(=O)OC(C)C,T/C,[11],97 % of control
same,T/C,[12],117 % of control
same,T/C,[13],105 % of control
Cc1ccccc1NC(=O)CN(C)C,T/C,"endpoint: mean survival time, dose: 100.0 mg/kg/injection, schedule: Q01DX001 (ip), vehicle: other",98 % of control
same,T/C,"endpoint: mean survival time, dose: 200.0 mg/kg/injection, schedule: Q01DX001 (ip), vehicle: other",103 % of control
CC(=O)CC(=O)Nc1cc(Cl)c(NC(=O)CC(C)=O)cc1Cl,T/C,"endpoint: mean survival time, dose: 44.0 mg/kg/injection, schedule: Q04DX003 (ip), vehicle: saline with Tween-80",104 % of control
same,T/C,"endpoint: mean survival time, dose: 66.0 mg/kg/injection, schedule: Q04DX003 (ip), vehicle: saline with Tween-80",96 % of control
same,T/C,[9],97 % of control
same,T/C,[4],98 % of control
same,T/C,"endpoint: mean survival time, dose: 150.0 mg/kg/injection, schedule: Q04DX003 (ip), vehicle: saline with Tween-80",100 % of control
same,T/C,[14],97 % of control
same,T/C,"endpoint: mean survival time, dose: 400.0 mg/kg/injection, schedule: Q01DX009 (ip), vehicle: saline with Tween-80",97 % of control
Cc1ccc(C2(c3ccccc3)c3ccccc3C(=O)N2c2ccccc2)cc1 (stereo not given),T/C,[4],97 % of control
same,T/C,[5],101 % of control
same,T/C,[6],103 % of control
CC(C)(C)C(C)(O)CN (stereo not given),T/C,"endpoint: mean survival time, dose: 100.0 mg/kg/injection, schedule: Q04DX003 (ip), vehicle: saline",95 % of control
same,T/C,"endpoint: mean survival time, dose: 200.0 mg/kg/injection, schedule: Q04DX003 (ip), vehicle: saline",101 % of control
same,T/C,"endpoint: mean survival time, dose: 400.0 mg/kg/injection, schedule: Q04DX003 (ip), vehicle: saline",92 % of control
COc1cc(C2=N/C(=C\c3cc(Br)ccc3O)C(=O)O2)cc(OC)c1OC,T/C,"endpoint: mean survival time, dose: 50.0 mg/kg/injection, schedule: Q04DX002 (ip), vehicle: saline with Tween-80",88 % of control
same,T/C,[11],95 % of control and 100 % of control
same,T/C,[12],96 % of control
same,T/C,[13],88 % of control and 100 % of control
O=[N+]([O-])c1ccc(CSC2=NCCN2)cc1,T/C,[15],106 % of control
CCc1c(C)c(C)cc(S(=O)(=O)O)c1C,T/C,[10],104 % of control
same,T/C,[9],93 % of control
same,T/C,[4],101 % of control
same,T/C,[14],89 % of control
same,T/C,[5],87 % of control
CC(=O)CCCCOC(C)=O,T/C,[4],101 % of control
same,T/C,[5],101 % of control
same,T/C,[6],98 % of control
CCCCCC(Br)C(Br)CC(Br)C(Br)CC(Br)C(Br)CCCCC(=O)O (stereo not given),T/C,"endpoint: mean survival time, dose: 100.0 mg/kg/injection, schedule: Q01DX001 (ip), vehicle: Klucel (hydroxypropylcellulose) (HPC)",101 % of control
same,T/C,"endpoint: mean survival time, dose: 200.0 mg/kg/injection, schedule: Q01DX001 (ip), vehicle: Klucel (hydroxypropylcellulose) (HPC)",96 % of control
same,T/C,"endpoint: mean survival time, dose: 400.0 mg/kg/injection, schedule: Q01DX001 (ip), vehicle: Klucel (hydroxypropylcellulose) (HPC)",107 % of control
CC(C)c1ccc2c(c1)CC[C@H]1[C@](C)(CN=C(N)CCl)CCC[C@]21C,T/C,[11],102 % of control
same,T/C,[12],95 % of control
C(=C/C1CCCCC1)/C=C/C1CCCCC1,T/C,[10],103 % of control
same,T/C,[9],92 % of control
same,T/C,[14],107 % of control
O=C1CCCCCCCCCCC1Sc1ccccc1 (stereo not given),T/C,[4],91 % of control
same,T/C,[5],100 % of control
same,T/C,[6],91 % of control
CCOC(=O)NC(=O)/C=C/N1CCCC1,T/C,"endpoint: mean survival time, dose: 50.0 mg/kg/injection, schedule: Q01DX009 (ip), vehicle: saline",102 % of control
same,T/C,[15],97 % of control
same,T/C,"endpoint: mean survival time, dose: 200.0 mg/kg/injection, schedule: Q01DX009 (ip), vehicle: saline",94 % of control
